Source: the CheMixHub viscosity set
Several values for one entry are separate records, joined by “and”; a condition that tells them apart may be missing. Equal values may be shown once. ± gives the uncertainty stated by the source.

Key:
[1] = xn = mol fraction of the nth substance listed; conditions: 101 kPa

Question: For `C=Cn1cc[n+](CC(N)=O)c1.O=S(=O)([N-]S(=O)(=O)C(F)(F)F)C(F)(F)F`, which viscosity (298.15 K, 100 kPa) is on record?
Answer: 280.7 ± 58 mPa·s

Question: What about the viscosity (303.15 K, 100 kPa) of the same compound?
Answer: 140.3 ± 28 mPa·s

Question: What about the viscosity (308.15 K, 100 kPa) of the same compound?
Answer: 71.51 ± 14 mPa·s

Question: And the viscosity (313.15 K, 100 kPa)?
Answer: 35.3 ± 7.1 mPa·s

Question: And the viscosity (318.15 K, 100 kPa)?
Answer: 19.85 ± 4 mPa·s

Question: What about the viscosity (323.15 K, 100 kPa) of the same compound?
Answer: 12.53 ± 2.5 mPa·s

Question: What does the source list for `CC(=O)c1ccc(C)cc1`?
Answer: viscosity (303.15 K, 100 kPa): 1.581 ± 0.021 mPa·s; viscosity (303.15 K, 101 kPa): 1.581 ± 0.021 mPa·s

Question: For `CC1CCC(=O)O1` (stereo not given), which viscosity (298.15 K, 101 kPa) is on record?
Answer: 1.873 ± 0.016 mPa·s

Question: What about the viscosity (303.15 K, 101 kPa) of the same compound?
Answer: 1.72 ± 0.015 mPa·s

Question: And the viscosity (308.15 K, 101 kPa)?
Answer: 1.586 ± 0.014 mPa·s

Question: And the viscosity (313.15 K, 101 kPa)?
Answer: 1.458 ± 0.013 mPa·s

Question: And the viscosity (318.15 K, 101 kPa)?
Answer: 1.364 ± 0.012 mPa·s

Question: Which results are given for `CCC1(C)OC1C#N` (stereo not given)?
Answer: viscosity (293.15 K, 101 kPa): 1.485 ± 0.039 mPa·s; viscosity (298.15 K, 101 kPa): 1.34 ± 0.04 mPa·s; viscosity (303.15 K, 101 kPa): 1.19 ± 0.03 mPa·s; viscosity (313.15 K, 101 kPa): 0.98 ± 0.03 mPa·s; viscosity (323.15 K, 101 kPa): 0.84 ± 0.02 mPa·s

Question: Which results are given for `CCCCC(CC)COP(=O)(O)OCC(CC)CCCC` (stereo not given)?
Answer: viscosity (303.15 K, 101 kPa): 20.25 ± 0.81 mPa·s; viscosity (313.15 K, 101 kPa): 13.35 ± 0.54 mPa·s

Question: For `CCCCCCCCCCCCN`, which viscosity (303.15 K, 101 kPa) is on record?
Answer: 2.658 ± 0.029 mPa·s

Question: What does the source list for `CCCCCCCCCCCC[N+](C)(C)Cc1ccccc1.O=S(=O)([N-]S(=O)(=O)C(F)(F)F)C(F)(F)F`?
Answer: viscosity (298.15 K, 101 kPa): 1425 ± 200 mPa·s; viscosity (303.15 K, 101 kPa): 974.3 ± 130 mPa·s; viscosity (308.15 K, 101 kPa): 682.7 ± 88 mPa·s; viscosity (313.15 K, 101 kPa): 484.8 ± 59 mPa·s; viscosity (318.15 K, 101 kPa): 351.1 ± 41 mPa·s; viscosity (323.15 K, 101 kPa): 260.6 ± 29 mPa·s

Question: Which viscosity (303.15 K, 101 kPa) does the source give for `CCCCCCn1cc[n+](C)c1.F[P-](F)(F)(F)(F)F` here?
Answer: 497.1 ± 150 mPa·s

Question: What about the viscosity (308.15 K, 101 kPa) of the same compound?
Answer: 364.4 ± 110 mPa·s

Question: What about the viscosity (313.15 K, 101 kPa) of the same compound?
Answer: 273 ± 83 mPa·s

Question: What about the viscosity (318.15 K, 101 kPa) of the same compound?
Answer: 208.5 ± 63 mPa·s

Question: For `CCCCOC(=O)C(C)O` (stereo not given), which viscosity (318.15 K, 101 kPa) is on record?
Answer: 1.935 ± 0.034 mPa·s

Question: Which viscosity (293.15 K, 101 kPa) does the source give for `CCCCOCCOCCOCCO` here?
Answer: 9.282 ± 0.055 mPa·s

Question: What about the viscosity (303.15 K, 101 kPa) of the same compound?
Answer: 6.528 ± 0.04 mPa·s

Question: And the viscosity (313.15 K, 101 kPa)?
Answer: 4.979 ± 0.032 mPa·s

Question: What about the viscosity (323.15 K, 101 kPa) of the same compound?
Answer: 3.769 ± 0.024 mPa·s

Question: With `CCCC[n+]1cc[nH]c1.O=S(=O)([N-]S(=O)(=O)C(F)(F)F)C(F)(F)F` as the compound, how does the viscosity (313.2 K, 101.33 kPa) read?
Answer: 47.18 ± 5.1 mPa·s

Question: For `C[N+](=O)[O-]`, which viscosity (293.15 K, 101 kPa) is on record?
Answer: 0.648 ± 0.007 mPa·s

Question: And the viscosity (293.15 K, 101.33 kPa)?
Answer: 0.644 ± 0.005 mPa·s and 0.644 ± 0.007 mPa·s and 0.646 ± 0.006 mPa·s

Question: What about the viscosity (298 K, 101.3 kPa) of the same compound?
Answer: 0.627 ± 0.008 mPa·s

Question: And the viscosity (298.15 K, 101.33 kPa)?
Answer: 0.6215 ± 0.0083 mPa·s and 0.615 ± 0.025 mPa·s

Question: What about the viscosity (298.45 K, 101 kPa) of the same compound?
Answer: 0.619 ± 0.006 mPa·s

Question: What about the viscosity (303.15 K, 101.33 kPa) of the same compound?
Answer: 0.581 ± 0.006 mPa·s and 0.581 ± 0.024 mPa·s

Question: What about the viscosity (313.15 K, 101.33 kPa) of the same compound?
Answer: 0.522 ± 0.005 mPa·s and 0.522 ± 0.021 mPa·s

Question: And the viscosity (318 K, 101.3 kPa)?
Answer: 0.5187 ± 0.02 mPa·s

Question: And the viscosity (318.15 K, 101 kPa)?
Answer: 0.5208 ± 0.014 mPa·s and 0.51 ± 0.006 mPa·s and 0.505 ± 0.005 mPa·s

Question: What about the viscosity (323.15 K, 101 kPa) of the same compound?
Answer: 0.486 ± 0.006 mPa·s

Question: What about the viscosity (323.15 K, 101.33 kPa) of the same compound?
Answer: 0.4845 ± 0.0066 mPa·s

Question: Which viscosity (293.15 K, 101 kPa) does the source give for `Cc1cccc(O)c1` here?
Answer: 16.9 ± 0.28 mPa·s

Question: And the viscosity (298 K, 101.3 kPa)?
Answer: 13.19 ± 0.26 mPa·s

Question: What about the viscosity (303 K, 101.3 kPa) of the same compound?
Answer: 9.877 ± 0.17 mPa·s

Question: What about the viscosity (308 K, 101.3 kPa) of the same compound?
Answer: 7.599 ± 0.1 mPa·s

Question: What about the viscosity (308.15 K, 101.33 kPa) of the same compound?
Answer: 7.635 ± 0.16 mPa·s

Question: And the viscosity (313 K, 101.3 kPa)?
Answer: 6.146 ± 0.065 mPa·s

Question: And the viscosity (313.15 K, 101 kPa)?
Answer: 5.925 ± 0.064 mPa·s and 6.542 ± 0.18 mPa·s

Question: And the viscosity (313.15 K, 101.3 kPa)?
Answer: 6.252 ± 0.075 mPa·s

Question: What about the viscosity (313.15 K, 101.33 kPa) of the same compound?
Answer: 6.18 mPa·s

Question: And the viscosity (318 K, 101.3 kPa)?
Answer: 4.968 ± 0.057 mPa·s

Question: What about the viscosity (318.15 K, 101 kPa) of the same compound?
Answer: 5.373 ± 0.69 mPa·s and 5.373 ± 0.46 mPa·s

Question: What about the viscosity (323.15 K, 101.3 kPa) of the same compound?
Answer: 4.111 ± 0.05 mPa·s

Question: For `N`, which viscosity (293.15 K, 101 kPa) is on record?
Answer: 0.144 ± 0.004 mPa·s

Question: Which viscosity (293.15 K, 100 kPa) does the source give for `O=Cc1ccco1` here?
Answer: 1.62 ± 0.65 mPa·s

Question: What about the viscosity (298.15 K, 100 kPa) of the same compound?
Answer: 1.48 ± 0.59 mPa·s

Question: And the viscosity (303.15 K, 100 kPa)?
Answer: 1.36 ± 0.54 mPa·s

Question: And the viscosity (308.15 K, 100 kPa)?
Answer: 1.26 ± 0.5 mPa·s

Question: What about the viscosity (313.15 K, 100 kPa) of the same compound?
Answer: 1.17 ± 0.47 mPa·s

Question: What about the viscosity (318.15 K, 100 kPa) of the same compound?
Answer: 1.09 ± 0.44 mPa·s

Question: And the viscosity (323.15 K, 100 kPa)?
Answer: 1.02 ± 0.41 mPa·s

Question: Which results are given for `OCC1CC1`?
Answer: viscosity (293.15 K, 101 kPa): 3.985 ± 0.085 mPa·s; viscosity (298.15 K, 101 kPa): 3.447 ± 0.074 mPa·s; viscosity (303.15 K, 101 kPa): 3.002 ± 0.064 mPa·s; viscosity (308.15 K, 101 kPa): 2.629 ± 0.056 mPa·s; viscosity (313.15 K, 101 kPa): 2.315 ± 0.05 mPa·s; viscosity (323.15 K, 101 kPa): 1.819 ± 0.039 mPa·s

Question: For `c1ccc(Cc2ccccc2)cc1`, which viscosity (302.85 K, 101 kPa) is on record?
Answer: 2.611 ± 0.069 mPa·s

Question: Which results are given for `Cc1cccc(O)c1` + c1ccncc1?
Answer: viscosity ([1]; 293.15 K, x1 = 0.1071): 1.228 ± 0.012 mPa·s; viscosity ([1]; 293.15 K, x1 = 0.2168): 1.77 ± 0.017 mPa·s; viscosity ([1]; 293.15 K, x1 = 0.3407): 2.54 ± 0.025 mPa·s; viscosity ([1]; 293.15 K, x1 = 0.3927): 3.085 ± 0.031 mPa·s; viscosity ([1]; 293.15 K, x1 = 0.4754): 4.25 ± 0.05 mPa·s; viscosity ([1]; 293.15 K, x1 = 0.542): 5.585 ± 0.062 mPa·s; viscosity ([1]; 293.15 K, x1 = 0.6374): 8.16 ± 0.1 mPa·s; viscosity ([1]; 293.15 K, x1 = 0.6973): 9.98 ± 0.13 mPa·s; viscosity ([1]; 293.15 K, x1 = 0.8077): 13.08 ± 0.19 mPa·s; viscosity ([1]; 293.15 K, x1 = 0.8862): 14.81 ± 0.23 mPa·s; viscosity ([1]; 303.15 K, x1 = 0.1071): 1.098 ± 0.011 mPa·s; viscosity ([1]; 303.15 K, x1 = 0.2168): 1.461 ± 0.014 mPa·s; viscosity ([1]; 303.15 K, x1 = 0.3407): 2.125 ± 0.021 mPa·s; viscosity ([1]; 303.15 K, x1 = 0.3927): 2.51 ± 0.03 mPa·s; viscosity ([1]; 303.15 K, x1 = 0.4754): 3.35 ± 0.03 mPa·s; viscosity ([1]; 303.15 K, x1 = 0.542): 4.175 ± 0.044 mPa·s; viscosity ([1]; 303.15 K, x1 = 0.6374): 5.57 ± 0.06 mPa·s; viscosity ([1]; 303.15 K, x1 = 0.6973): 6.52 ± 0.08 mPa·s; viscosity ([1]; 303.15 K, x1 = 0.8077): 7.885 ± 0.1 mPa·s; viscosity ([1]; 303.15 K, x1 = 0.8862): 8.64 ± 0.12 mPa·s; viscosity ([1]; 313.15 K, x1 = 0.1071): 0.931 ± 0.009 mPa·s; viscosity ([1]; 313.15 K, x1 = 0.2168): 1.24 ± 0.012 mPa·s; viscosity ([1]; 313.15 K, x1 = 0.3407): 1.732 ± 0.017 mPa·s; viscosity ([1]; 313.15 K, x1 = 0.3927): 2.022 ± 0.02 mPa·s; viscosity ([1]; 313.15 K, x1 = 0.4754): 2.605 ± 0.025 mPa·s; viscosity ([1]; 313.15 K, x1 = 0.542): 3.15 ± 0.031 mPa·s; viscosity ([1]; 313.15 K, x1 = 0.6374): 3.995 ± 0.04 mPa·s; viscosity ([1]; 313.15 K, x1 = 0.6973): 4.565 ± 0.046 mPa·s; viscosity ([1]; 313.15 K, x1 = 0.8077): 5.255 ± 0.055 mPa·s; viscosity ([1]; 313.15 K, x1 = 0.8862): 5.59 ± 0.059 mPa·s
